Measurements published in paper PMC9666555, “Genuine selective caspase-2 inhibition with new irreversible small peptidomimetics” (Cell Death & Disease, 2022).

Columns and labels:
[1] = target: Cathepsin-B (Homo sapiens, UniProt P07858); experiment: Non-caspase enzyme assay, Cathepsin-B; assay type: biochemical; details: concentrations up to 10 µM
Method: (§1) Stock solutions were stored at −80 °C. […]
(§2) Non-caspase enzyme assays
(§3) The human pro- kallikrein-1 (pro-hK1) was activated in a buffer containing: Tris-HCl 50 mM, CaCl2 10 mM, NaCl 150 mM, Brij-35 0,05% pH 7,5. Human pro-kallikrein-6 and -8 (pro-hK6 and 8 were activated using Lysyl-endopeptidase (Wako- BioProducts®) at a 1/500 weight ratio, in a buffer containing 50 mM Tris and 0,05% Brij-35 (pH 8). Kinetics using non-caspase enzymes for selectivity studies were done according to the following conditions.
(§4) Enzymes Substrates Buffers
(§5) Cathepsine B (0.2 nM) z-RR-AMC 20 µM Acétate de sodium 0,1 M; EDTA 1mM ; […]
(§6) Cathepsine L (1.2 nM) RLR-AMC 25 µM Acétate de sodium 0,1 M; EDTA 1mM ; […]
(§7) Cathepsine D (0.1 nM) Mca-Gly-Ly s-Pro-Ile-Leu-Phe-Phe- Citrate de Sodium 0,1 M; EDTA 2 mM ; Arg-Leu-Lys(Dnp)-D-Arg-NH2 10 µM Brij-35 0,01%; pH 4 hK1 (4 nM) Boc-VPR-AMC 100µM Tris 50mM; Citrate 1M; Brij-35 0.05%; pH7 hK6 (2 nM ) Boc-QAR -AMC 100 µM Tris 50mM; Citrate 1M; Brij-35 0.05%; pH7 hK8 (1 nM) Boc-VPR-AMC 100µM Tris 50mM; Citrate 1M; Brij-35 0.05%; pH7
(§8) Thrombine (10 mU/mL) Boc-VPR-AMC 100µM Tris 50mM; Citrate 1M; Brij-35 0.05%; pH7 Plasmine (4 nM ) Boc-QAR -AMC 100µM Tris 50mM; Citrate 1M; Brij-35 0.05%; pH7 Trypsine (0.1 nM) Boc-QAR -AMC 100µM Tris 50mM; Citrate 1M; Brij-35 0.05%; pH7

[2] = target: Cathepsin-L (Homo sapiens, UniProt P07711); experiment: Non-caspase enzyme assay, Cathepsin-L; assay type: biochemical; details: concentrations up to 10 µM
Cathepsin-L, sequence (P07711 114-333): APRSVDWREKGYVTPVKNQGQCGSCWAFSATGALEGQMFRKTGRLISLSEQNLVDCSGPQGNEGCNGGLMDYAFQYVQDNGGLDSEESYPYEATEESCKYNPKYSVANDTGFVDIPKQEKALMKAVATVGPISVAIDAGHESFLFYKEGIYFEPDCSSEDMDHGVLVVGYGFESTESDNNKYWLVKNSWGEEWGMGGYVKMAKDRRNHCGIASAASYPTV
Method: as §1, §2, §3, §4, §5, §6, §7, §8

[3] = target: Cathepsin-D (Homo sapiens, UniProt P07339); experiment: Non-caspase enzyme assay, Cathepsin-D; assay type: biochemical; details: concentrations up to 10 µM
Cathepsin-D, sequence (P07339 65-412): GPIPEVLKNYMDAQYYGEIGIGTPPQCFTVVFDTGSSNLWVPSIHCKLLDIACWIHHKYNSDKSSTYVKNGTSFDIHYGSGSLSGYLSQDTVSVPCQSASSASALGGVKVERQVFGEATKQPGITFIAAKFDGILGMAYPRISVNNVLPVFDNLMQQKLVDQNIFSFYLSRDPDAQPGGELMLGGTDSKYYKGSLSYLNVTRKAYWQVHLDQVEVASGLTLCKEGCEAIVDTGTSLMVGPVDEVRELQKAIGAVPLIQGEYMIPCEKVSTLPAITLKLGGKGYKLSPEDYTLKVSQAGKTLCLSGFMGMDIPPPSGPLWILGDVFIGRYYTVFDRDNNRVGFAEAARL
Method: as §1, §2, §3, §4, §5, §6, §7, §8

[4] = target: T1, Plasmin (Homo sapiens, UniProt P00747); experiment: Non-caspase enzyme assay, Plasmin; assay type: biochemical; details: concentrations up to 10 µM
T1 construct: The human active Plasmin, Thrombin, and Trypsin; purchased Sigma-Aldrich
T1 sequence (P00747 581-810 limits assumed): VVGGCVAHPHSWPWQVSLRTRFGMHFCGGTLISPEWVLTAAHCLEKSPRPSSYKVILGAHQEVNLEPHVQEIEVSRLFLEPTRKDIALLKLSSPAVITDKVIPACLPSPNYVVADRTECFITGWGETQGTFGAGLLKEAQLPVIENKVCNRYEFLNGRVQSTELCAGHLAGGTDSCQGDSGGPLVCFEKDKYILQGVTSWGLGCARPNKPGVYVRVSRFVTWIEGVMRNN
T1 sequence (P00747 97-580 partner limits assumed): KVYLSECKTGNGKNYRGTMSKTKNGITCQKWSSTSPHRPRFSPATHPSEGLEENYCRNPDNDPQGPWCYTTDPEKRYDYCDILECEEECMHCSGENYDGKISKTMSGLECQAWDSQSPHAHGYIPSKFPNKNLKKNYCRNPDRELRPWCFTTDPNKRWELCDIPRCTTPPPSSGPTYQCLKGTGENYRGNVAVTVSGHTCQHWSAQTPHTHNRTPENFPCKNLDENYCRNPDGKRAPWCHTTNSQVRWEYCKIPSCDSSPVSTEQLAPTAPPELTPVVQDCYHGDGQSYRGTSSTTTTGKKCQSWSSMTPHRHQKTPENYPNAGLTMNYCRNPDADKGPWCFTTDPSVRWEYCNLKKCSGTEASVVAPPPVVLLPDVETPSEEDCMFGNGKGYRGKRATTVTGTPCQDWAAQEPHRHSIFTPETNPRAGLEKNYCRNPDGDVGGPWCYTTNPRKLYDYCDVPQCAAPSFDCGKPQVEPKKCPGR
Method: as §1, §2, §3, §4, §5, §6, §7, §8

[5] = target: T2, Kallikrein-1 (Homo sapiens, UniProt P06870); experiment: Non-caspase enzyme assay, Kallikrein-1; assay type: biochemical; details: concentrations up to 10 µM
T2 construct: purchased R&D Systems 2337-SE-010
T2 sequence (P06870 25-262): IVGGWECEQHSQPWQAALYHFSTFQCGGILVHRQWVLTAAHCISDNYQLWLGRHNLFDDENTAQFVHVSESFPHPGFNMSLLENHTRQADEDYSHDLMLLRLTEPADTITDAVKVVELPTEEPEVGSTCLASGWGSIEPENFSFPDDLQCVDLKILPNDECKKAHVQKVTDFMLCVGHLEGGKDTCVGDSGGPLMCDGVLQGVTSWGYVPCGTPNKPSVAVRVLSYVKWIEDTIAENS
Method: as §1, §2, §3, §4, §5, §6, §7, §8

[6] = target: T3, Kallikrein-6 (Homo sapiens, UniProt Q92876); experiment: Non-caspase enzyme assay, Kallikrein-6; assay type: biochemical; details: concentrations up to 10 µM
T3 construct: purchased R&D Systems 5164-SE-010
Method: as §1, §2, §3, §4, §5, §6, §7, §8

[7] = tested on: Casp2-S1P-SREBP2 activation pathway in HEK 293 cells; experiment: Casp2-dependent S1P cleavage and SREBP2 activation in transfected HEK 293 cells (WB); details: 10 µM, 16 h
Method: To test SREBP processing, HEK 293 (ATCC® CRL-1573) cells were plated at a density of 0.5 × 10^5 per well (6-well plates). The next day, 1 μg of each cDNAs were transfected using lipofectamine 3000 (Thermo Fisher Scientific, MA) according to the manufacturer’s instruction. cDNAs used were empty vector (EV), Casp2-HA, PIDD-Flag, RAIDD-His, Myc-S1P, and V5-SREBP2. After 4 h, cells were incubated in DMEM/F12 medium supplemented with indicated Casp2 inhibitors (10 μM) for 16 h. Whole-cell lysates were prepared in lysate buffer (150 mM Tris-HCl, pH 7.4, 10% sodium-deoxycholate, 100 mM NaCl, 100 mM EDTA, 100 mM PMSF, 200 mM NaF, 100 mM Na3VO4, and a mixture of protease inhibitors). […] Equal quantities of proteins were subjected to immunoblot (WB) analysis with anti-Flag (#F7425 Sigma-Aldrich), anti-HA (#1867431, Roche), anti-Casp2 (#ALX-804-356, 11B4, Enzo Life Sciences), anti-V5 monoclonal antibody (#13202, Cell Signaling Technology), anti-Casp3 (#9661, #9662, #9664, Cell Signaling Technologies), and anti-HSP90 (#sc-101494, Santa Cruz Technologies).
HEK 293 cells were transfected with indicated plasmids in order to overexpress SREBP2, S1P, RAIDD, PIDD1, and Casp-2. […] HEK 293 cells were transfected with the indicated plasmids. […] Then, whole cell extracts (WCL) were prepared and subjected to WB analysis to detect Casp2 (through HA tag), RAIDD (through 6HIS tag), and PIDD1, PIDD1-C, PIDD1-CC (through Flag tag).

CC(C)[C@H](NC(=O)c1ccc2ccccc2n1)C(=O)N[C@@H](CC(=O)O)C(=O)N[C@H](C(=O)N1CC[C@H](CC(C)(C)C)[C@@H]1C(=O)NC(CC(=O)O)C(=O)COc1c(F)cccc1F)C(C)C (stereo partly drawn) [LJ3a]
no significant impact: impact on RAIDD, PIDD1, and Casp2 expression [7]
very limited or no effect: effect on Cathepsin-B [1] | effect on Cathepsin-L [2] | effect on Cathepsin-D [3] | effect on Plasmin [4] | effect on Kallikrein-1 [5] | effect on Kallikrein-6 [6]
abolished: S1P cleavage [7] | SREBP2 activation [7]
